Reference: ChEMBL document CHEMBL6078630, “Design, synthesis, and bioactivity investigation of novel cyclic lipopeptide antibiotics targeting top-priority multidrug-resistant gram-negative bacteria” (Eur J Med Chem, 2024)
≈ marks a conversion by molar mass, not a printed value. Bridge positions count the residues as written; N and C are the ends. Square brackets hold non-standard residues; d marks the D form. Peptide text beside a SMILES is read from it. * marks the point of attachment. X1 = CC[C@H](C)CCCCC(=O)*; Dab = NCC[C@H](N)C(=O)O

Tests used:
Type in all cases: functional
Pseudomonas aeruginosa [1] = assay: Antibacterial activity against carbapenem-resistant Pseudomonas aeruginosa clinical isolate ets22 assessed as inhibition of bacterial growth incubated for 24 hrs by CLSI protocol based broth microdilution method
Acinetobacter baumannii [2] = assay: Antibacterial activity against carbapenem-resistant Acinetobacter baumannii clinical isolate ets123 assessed as inhibition of bacterial growth incubated for 24 hrs by CLSI protocol based broth microdilution method
Pseudomonas aeruginosa [3] = assay: Antibacterial activity against carbapenem-resistant Pseudomonas aeruginosa clinical isolate ets33 assessed as inhibition of bacterial growth incubated for 24 hrs by CLSI protocol based broth microdilution method
Acinetobacter baumannii [4] = assay: Antibacterial activity against carbapenem-resistant Acinetobacter baumannii clinical isolate ets104 assessed as inhibition of bacterial growth incubated for 24 hrs by CLSI protocol based broth microdilution method
Acinetobacter baumannii [5] = assay: Antibacterial activity against carbapenem-sensitive Acinetobacter baumannii clinical isolate 19-1 assessed as inhibition of bacterial growth incubated for 16 to 20 hrs by CLSI protocol based broth microdilution method; settings: time 16-20 hrs
Klebsiella pneumoniae [6] = assay: Antibacterial activity against carbapenem-resistant Klebsiella pneumoniae clinical isolate ets74 assessed as inhibition of bacterial growth incubated for 24 hrs by CLSI protocol based broth microdilution method
Pseudomonas aeruginosa [7] = assay: Antibacterial activity against carbapenem-resistant Pseudomonas aeruginosa clinical isolate ets55 assessed as inhibition of bacterial growth incubated for 24 hrs by CLSI protocol based broth microdilution method
Klebsiella pneumoniae [8] = assay: Antibacterial activity against carbapenem-resistant Klebsiella pneumoniae clinical isolate ets77 assessed as inhibition of bacterial growth incubated for 24 hrs by CLSI protocol based broth microdilution method
Pseudomonas aeruginosa [9] = assay: Antibacterial activity against carbapenem-resistant Pseudomonas aeruginosa clinical isolate ets5 assessed as inhibition of bacterial growth incubated for 24 hrs by CLSI protocol based broth microdilution method
Klebsiella pneumoniae [10] = assay: Antibacterial activity against carbapenem-resistant Klebsiella pneumoniae clinical isolate ets26 assessed as inhibition of bacterial growth incubated for 24 hrs by CLSI protocol based broth microdilution method
Acinetobacter baumannii [11] = assay: Antibacterial activity against carbapenem-resistant Acinetobacter baumannii clinical isolate ets178 assessed as inhibition of bacterial growth incubated for 24 hrs by CLSI protocol based broth microdilution method
Pseudomonas aeruginosa [12] = assay: Antibacterial activity against carbapenem-resistant Pseudomonas aeruginosa clinical isolate ets6 assessed as inhibition of bacterial growth incubated for 24 hrs by CLSI protocol based broth microdilution method
Pseudomonas aeruginosa [13] = assay: Antibacterial activity against carbapenem-resistant Pseudomonas aeruginosa clinical isolate ets83 assessed as inhibition of bacterial growth incubated for 24 hrs by CLSI protocol based broth microdilution method
Escherichia coli [14] = assay: Antibacterial activity against carbapenem-resistant Escherichia coli clinical isolate 231109W005 assessed as inhibition of bacterial growth incubated for 24 hrs by CLSI protocol based broth microdilution method
Pseudomonas aeruginosa [15] = assay: Antibacterial activity against carbapenem-resistant Pseudomonas aeruginosa clinical isolate ets38 assessed as inhibition of bacterial growth incubated for 24 hrs by CLSI protocol based broth microdilution method
Klebsiella pneumoniae [16] = assay: Antibacterial activity against carbapenem-resistant Klebsiella pneumoniae clinical isolate ets78 assessed as inhibition of bacterial growth incubated for 24 hrs by CLSI protocol based broth microdilution method
Escherichia coli [17] = assay: Antibacterial activity against carbapenem-resistant Escherichia coli clinical isolate 231112E006B assessed as inhibition of bacterial growth incubated for 24 hrs by CLSI protocol based broth microdilution method
Klebsiella pneumoniae [18] = assay: Antibacterial activity against carbapenem-resistant Klebsiella pneumoniae clinical isolate ets40 assessed as inhibition of bacterial growth incubated for 24 hrs by CLSI protocol based broth microdilution method
Escherichia coli [19] = assay: Antibacterial activity against carbapenem-resistant Escherichia coli ATCC BAA-2340 assessed as inhibition of bacterial growth incubated for 16 to 20 hrs by CLSI protocol based broth microdilution method; settings: time 16-20 hrs
Acinetobacter baumannii [20] = assay: Antibacterial activity against carbapenem-resistant Acinetobacter baumannii clinical isolate ets30 assessed as inhibition of bacterial growth incubated for 24 hrs by CLSI protocol based broth microdilution method
Pseudomonas aeruginosa [21] = assay: Antibacterial activity against carbapenem-resistant Pseudomonas aeruginosa clinical isolate 19-3 assessed as inhibition of bacterial growth incubated for 16 to 20 hrs by CLSI protocol based broth microdilution method; settings: time 16-20 hrs
Klebsiella pneumoniae [22] = assay: Antibacterial activity against carbapenem-resistant Klebsiella pneumoniae clinical isolate ets45 assessed as inhibition of bacterial growth incubated for 24 hrs by CLSI protocol based broth microdilution method
Pseudomonas aeruginosa [23] = assay: Antibacterial activity against carbapenem-resistant Pseudomonas aeruginosa clinical isolate ets104 assessed as inhibition of bacterial growth incubated for 24 hrs by CLSI protocol based broth microdilution method
Klebsiella pneumoniae [24] = assay: Antibacterial activity against carbapenem-resistant Klebsiella pneumoniae clinical isolate ets80 assessed as inhibition of bacterial growth incubated for 24 hrs by CLSI protocol based broth microdilution method
Pseudomonas aeruginosa [25] = assay: Antibacterial activity against carbapenem-resistant Pseudomonas aeruginosa clinical isolate ets49 assessed as inhibition of bacterial growth incubated for 24 hrs by CLSI protocol based broth microdilution method
Klebsiella pneumoniae [26] = assay: Antibacterial activity against carbapenem-resistant Klebsiella pneumoniae ATCC BAA-1705 assessed as inhibition of bacterial growth incubated for 16 to 20 hrs by CLSI protocol based broth microdilution method; settings: time 16-20 hrs
Pseudomonas aeruginosa [27] = assay: Antibacterial activity against carbapenem-resistant Pseudomonas aeruginosa clinical isolate ets85 assessed as inhibition of bacterial growth incubated for 24 hrs by CLSI protocol based broth microdilution method
Klebsiella pneumoniae [28] = assay: Antibacterial activity against carbapenem-resistant Klebsiella pneumoniae clinical isolate KPN+19-15 infected in ICR mouse model assessed as survival rate at 4 mg/kg, iv administered at 1 and 6 hrs post-infection and measured after 7 days relative to control; settings: 168 h, time 7 day
Klebsiella pneumoniae [29] = assay: Antibacterial activity against carbapenem-resistant Klebsiella pneumoniae clinical isolate ets75 assessed as inhibition of bacterial growth incubated for 24 hrs by CLSI protocol based broth microdilution method
Escherichia coli [30] = assay: Antibacterial activity against Escherichia coli ATCC BAA-2523 assessed as inhibition of bacterial growth incubated for 16 to 20 hrs by CLSI protocol based broth microdilution method; settings: time 16-20 hrs
Escherichia coli [31] = assay: Antibacterial activity against carbapenem-resistant Escherichia coli clinical isolate 231016w014 assessed as inhibition of bacterial growth incubated for 24 hrs by CLSI protocol based broth microdilution method
Pseudomonas aeruginosa [32] = assay: Antibacterial activity against Pseudomonas aeruginosa ATCC 27853 assessed as inhibition of bacterial growth incubated for 16 to 20 hrs by CLSI protocol based broth microdilution method; settings: time 16-20 hrs
Acinetobacter baumannii [33] = assay: Antibacterial activity against carbapenem-resistant Acinetobacter baumannii clinical isolate ets171 assessed as inhibition of bacterial growth incubated for 24 hrs by CLSI protocol based broth microdilution method
Klebsiella pneumoniae [34] = assay: Antibacterial activity against carbapenem-resistant Klebsiella pneumoniae clinical isolate KPN+19-15 assessed as inhibition of bacterial growth incubated for 16 to 20 hrs by CLSI protocol based broth microdilution method; settings: time 16-20 hrs
Pseudomonas aeruginosa [35] = assay: Antibacterial activity against Pseudomonas aeruginosa ATCC 27853 infected in ICR mouse model infected in ICR mouse model assessed as survival rate at 2 mg/kg, iv administered at 1 and 6 hrs post-infection and measured after 7 days relative to control; settings: ATCC 27853, 168 h, time 7 day
Klebsiella pneumoniae [36] = assay: Antibacterial activity against carbapenem-resistant Klebsiella pneumoniae clinical isolate KPN+19-15 infected in ICR mouse model administered intravenously with compound at 1 and 6 hrs post-infection and measured after 7 days; settings: 168 h, route iv, time 7 day
Acinetobacter baumannii [37] = assay: Antibacterial activity against Acinetobacter baumannii NCTC 13304 (OXA-27) assessed as inhibition of bacterial growth incubated for 16 to 20 hrs by CLSI protocol based broth microdilution method; settings: time 16-20 hrs
Pseudomonas aeruginosa [38] = assay: Antibacterial activity against carbapenem-resistant Pseudomonas aeruginosa clinical isolate ets15 assessed as inhibition of bacterial growth incubated for 24 hrs by CLSI protocol based broth microdilution method
Pseudomonas aeruginosa [39] = assay: Antibacterial activity against carbapenem-resistant Pseudomonas aeruginosa clinical isolate ets84 assessed as inhibition of bacterial growth incubated for 24 hrs by CLSI protocol based broth microdilution method
Pseudomonas aeruginosa [40] = assay: Antibacterial activity against Pseudomonas aeruginosa ATCC 27853 assessed as inhibition of bacterial growth incubated 24 hrs by cation adjusted Mueller-Hinton broth based method

Structure (SMILES): CC(C)CCCCC(=O)N[C@@H](CCN)C(=O)N[C@H](C(=O)N[C@@H](CCN)C(=O)N[C@H]1CCNC(=O)[C@H]([C@@H](C)O)NC(=O)[C@H](CCN)NC(=O)[C@H](CCN)NC(=O)[C@H](CC(C)C)NC(=O)[C@@H](Cc2ccccc2)NC(=O)[C@H](CCN)NC1=O)[C@@H](C)O.CC[C@H](C)CCCCC(=O)N[C@@H](CCN)C(=O)N[C@H](C(=O)N[C@@H](CCN)C(=O)N[C@H]1CCNC(=O)[C@H]([C@@H](C)O)NC(=O)[C@H](CCN)NC(=O)[C@H](CCN)NC(=O)[C@H](CC(C)C)NC(=O)[C@@H](Cc2ccccc2)NC(=O)[C@H](CCN)NC1=O)[C@@H](C)O (X1-[Dab]T[Dab][Dab][Dab][dF]L[Dab][Dab]T; lactam 4-C)
- MIC (Pseudomonas aeruginosa [1]): 4 µg/mL
- MIC (Acinetobacter baumannii [2]): 1 µg/mL
- MIC (Pseudomonas aeruginosa [3]): 4 µg/mL
- MIC (Acinetobacter baumannii [4]): 0.125 µg/mL
- MIC (Acinetobacter baumannii [5]): 0.25 µg/mL
- MIC (Klebsiella pneumoniae [6]): 1 µg/mL
- MIC (Pseudomonas aeruginosa [7]): 4 µg/mL
- MIC (Klebsiella pneumoniae [8]): 1 µg/mL
- MIC (Pseudomonas aeruginosa [9]): 2 µg/mL
- MIC (Klebsiella pneumoniae [10]): 2 µg/mL
- MIC (Acinetobacter baumannii [11]): 2 µg/mL
- MIC (Pseudomonas aeruginosa [12]): 2 µg/mL
- MIC (Pseudomonas aeruginosa [13]): 1 µg/mL
- MIC (Escherichia coli [14]): < 0.06 µg/mL
- MIC (Pseudomonas aeruginosa [15]): 4 µg/mL
- MIC (Klebsiella pneumoniae [16]): 0.5 µg/mL
- MIC (Escherichia coli [17]): < 0.06 µg/mL
- MIC (Klebsiella pneumoniae [18]): 1 µg/mL
- MIC (Escherichia coli [19]): ≤ 0.03 µg/mL
- MIC (Acinetobacter baumannii [20]): 1 µg/mL
- MIC (Pseudomonas aeruginosa [21]): 0.25 µg/mL
- MIC (Klebsiella pneumoniae [22]): 2 µg/mL
- MIC (Pseudomonas aeruginosa [23]): 4 µg/mL
- MIC (Klebsiella pneumoniae [24]): 1 µg/mL
- MIC (Pseudomonas aeruginosa [25]): 4 µg/mL
- MIC (Klebsiella pneumoniae [26]): 0.125 µg/mL
- MIC (Pseudomonas aeruginosa [27]): 4 µg/mL
- survival at 4 mg/kg (Klebsiella pneumoniae [28]): 62.5%
- MIC (Klebsiella pneumoniae [29]): 1 µg/mL
- MIC (Escherichia coli [30]): ≤ 0.03 µg/mL
- MIC (Escherichia coli [31]): < 0.06 µg/mL
- MIC (Pseudomonas aeruginosa [32]): 0.25 µg/mL
- MIC (Acinetobacter baumannii [33]): 2 µg/mL
- MIC (Klebsiella pneumoniae [34]): 0.125 µg/mL
- survival at 2 mg/kg (Pseudomonas aeruginosa [35]): 37.5%
- ED50 (Klebsiella pneumoniae [36]): 2.7 mg/kg
- MIC (Acinetobacter baumannii [37]): 0.06 µg/mL
- MIC (Pseudomonas aeruginosa [38]): 1 µg/mL
- MIC (Pseudomonas aeruginosa [39]): 0.5 µg/mL

Structure (SMILES): CO[C@H]1/C=C/O[C@@]2(C)Oc3c(C)c(O)c4c(O)c(c(/C=N/N5CCN(C)CC5)c(O)c4c3C2=O)NC(=O)/C(C)=C\C=C\[C@H](C)[C@H](O)[C@@H](C)[C@@H](O)[C@@H](C)[C@H](OC(C)=O)[C@@H]1C [RIFAMPIN]
- MIC (Pseudomonas aeruginosa [40]): 32 µg/mL (≈ 38.9 µM)
